Measured values as given in patent publication US20190083497A1, “MODULATION OF BLOOD BRAIN BARRIER PERMEABILITY” (Cornell University, priority 2008, published 2019).

How the values were obtained:
Z310 cells = test: Jurkat cell migration across Z310 choroid plexus cell transwell; assay type: cell-based, murine; settings: Z310 cells on Transwell; migrated cells counted after 24 hours; n=1
Experimental: The choroid plexus (“CP”) controls lymphocyte migration into the CNS. The CP expresses the A1 and A2a adenosine receptors. EAE is prevented in mice when A2a adenosine receptor activity is blocked. EAE is enhanced when the A1 adenosine receptor is missing. It was hypothesized that A2a adenosine receptor activation promotes lymphocyte migration across the CP. Z310 cells are a murine choroid plexus cell line. To test the hypothesis, Transwell membranes were seeded with Z310 cells and allowed to grow to confluencey. 2×10^6 Jurkat cells were added to the upper chamber with or with out NECA (n=1, general AR agonist), CCPA (n=1, A1AR agonist), CGS 21680 (n=1, A2AAR agonist), or DMSO vehicle(n=1). After 24 hours, migrated cells in the lower chamber were counted. Values are relative to the number of cells that migrate through non-Z310 seeded transwells and the results are shown in FIG. 12.

hCMEC/D3 cells [1] = test: cAMP levels in hCMEC/D3 cells (cAMP Screen kit); assay type: cell-based, human; settings: 15 minutes treatment
Experimental: Adenosine receptor activation regulates cAMP levels in cells. In order to determine the sensitivity of human brain endothelial cells to adenosine receptor induced cAMP regulation, human brain endothelial cells were cultured with adenosine receptor agonists at various concentrations, followed by cAMP level analysis, as shown in FIG. 13.
HCMECD3 cells were grown to confluencey on 24 well plates. As adenosine receptor (“AR”) stimulation is known to influence cAMP levels, cells were treated with or without various concentrations of NECA (general AR agonist), CCPA (A1AR agonist), CGS 21680 (A2AAR agonist), DMSO vehicle, or Forksolin (induces cAMP). After 15 minutes, lysis buffer was added and the cells were frozen at −80 C to stop the reaction. Duplicate samples were used for each condition. cAMP levels were assayed using a cAMP Screen kit (Applied Biosystems, Foster City, Calif.).

hCMEC/D3 cells [2] = test: Jurkat cell migration across hCMEC/D3 transwell in vitro BBB; assay type: cell-based, human; settings: hCMEC/D3 on Transwell; migrated cells counted after 24 hours
From the text: The blood brain barrier (BBB) is comprised of endothelial cells. During late stages of EAE, lymphocytes are known to cross the BBB. In order to determine if adenosine receptor stimulation of brain endothelial cells could promote lymphocyte migration through the BBB, an in vitro BBB was established. The human brain endothelial cell line hCMEC/D3 (Weksler et al., “Blood-brain Barrier-specific Properties of a Human Adult Brain Endothelial Cell Line,” J. Neurochem. 19(13):1872-4 (2005); Poller et al., “The Human Brain Endothelial Cell Line hCMEC/D3 as a Human Blood-brain Barrier Model for Drug Transport Studies,” J. Neurochem. 107(5):1358-1368 (2008), which are hereby incorporated by reference in their entirety) was obtained, which has been previously described as having BBB properties.
hCMEC/D3 cells were seeded onto Transwell and allowed to grow to confluencey. 2×10^6 Jurkat cells were added to the upper chamber with or without NECA (general adenosine receptor [AR] agonist), CCPA (A1AR agonist), CGS 21680 (A2AAR agonist), or DMSO vehicle. After 24 hours, migrated cells in the lower chamber were counted. Values are relative to the number of cells that migrate through non-HCMECD3 seeded transwells.

EAE-induced mice = test: EAE induction and scoring (MOG35-55/CFA + pertussis toxin); assay type: in vivo, mouse
Experimental: C57BL/6 and tcrα^−/− mice on the C57BL/6 background were purchased from The Jackson Laboratories. Mice were bred and housed under specific pathogen-free conditions at Cornell University or the University of Turku. For adenosine receptor blockade experiments, mice were given drinking water supplemented with 0.6 g/L of caffeine (Sigma) or 2 mg/kg SCH58261 (1 mg/kg s.c. and 1 mg/kg i.p.) in DMSO (45% vol. in PBS) or 45% DMSO alone starting 1 day before EAE induction and continuing throughout the experiment. All procedures performed on mice were approved by the relevant animal review committee.
EAE was induced by subjecting mice to the myelin oligodendrocyte glycoprotein (“MOG”) EAE-inducing regimen as described in Swanborg, “Experimental Autoimmune Encephalomyelitis in Rodents as a Model for Human Demyelinating Disease,” Clin. Immunol. […] Briefly, a 1:1 emulsion of MOG35-55 peptide (3 mg/ml in PBS) (Invitrogen) and complete Freund's adjuvant (CFA, Sigma) was injected subcutaneously (50 μl) into each flank. Pertussis toxin (PTX, 20 ng) (Biological Laboratories Inc.) was given intravenously (200 μl in PBS) at the time of immunization and again 2 days later. Mice were scored daily for EAE based on disease symptom severity; 0=no disease, 0.5 -1=weak/limp tail, 2=limp tail and partial hind limb paralysis, 3=total hind limb paralysis, 4=both hind limb and fore limb paralysis, 5=death. Mice with a score of 4 were euthanized.
Wild type mice were given 1 mg/kg of SCH58261 in DMSO or DMSO alone both i.p. and s.c. (for a total of 2 mg/kg) 1 day prior to EAE induction and daily for 30 days throughout the course of the experiment (FIG. 7C).

blood brain barrier = test: FITC-Dextran extravasation through the brain endothelium; assay type: in vivo, mouse; settings: 30 minutes after IP FITC Dextran
Experimental: In order to examine the effects of caffeine, a general adenosine receptor antagonist, on blood brain barrier permeability, mice were fed caffeine for several days and then injected with FITC Dextran, commonly used to assess endothelial permeability.
More particularly, mice were fed 0.6 g/l caffeine (Sigma, St. Louis, Mo.) in water or regular water ad lib for five days. Mice were injected IP with FITC Dextran (10,000 MW, Molecular Probes, Eugene, Oreg.) and after 30 minutes mice were perfused with ice cold PBS via the left ventricle. Brains were removed and snap frozen in OCT (Tissue Tek, Torrance, Calif.) and stored at −80° C. until sectioning. Tissue sections (5 μm) were stained with hematoxylin for light microscopy and with DAPI for a fluorescent counterstain.

In the case of `OC[C@H]1O[C@@H](n2cnc3c(NC4CCCC4)nc(Cl)nc32)[C@H](O)[C@@H]1O` [CCPA], the “lymphocyte (Jurkat) migration across the CP” value (Z310 cells) is reported as “induced lymphocyte migration at high levels”, the cAMP levels (hCMEC/D3 cells [1]; high levels of the agonist) is reported as “increased cAMP levels” and the “lymphocyte (Jurkat) migration across the in vitro BBB” value (hCMEC/D3 cells [2]) is reported as “induced lymphocyte migration at high levels”.

`Cn1c(=O)c2c(ncn2C)n(C)c1=O` [caffeine] was tested, and the “EAE development (mean EAE score)” value (EAE-induced mice; cd73-/- mice, caffeine 0.6 g/L in drinking water from 1 day prior to and throughout the EAE experiment) was “did not develop EAE”, the “EAE development (mean EAE score)” value (EAE-induced mice; wild type mice, caffeine 0.6 g/L in drinking water from 1 day prior to and throughout the EAE experiment) was “dramatically protected against EAE development” and the “FITC-Dextran extravasation across the blood brain barrier (green color of brain sections)” value (blood brain barrier; CD73-/- mice fed 0.6 g/l caffeine in water for five days) was “much less intense green color than wild type mice”. For the same molecule, the “FITC-Dextran extravasation across the blood brain barrier (green color of brain sections)” value (blood brain barrier; wild type mice fed 0.6 g/l caffeine in water for five days) was “intensely green background”.

In the case of `CCNC(=O)[C@H]1O[C@@H](n2cnc3c(N)nc(NCCc4ccc(CCC(=O)O)cc4)nc32)[C@H](O)[C@@H]1O` [CGS], the “lymphocyte (Jurkat) migration across the CP” value (Z310 cells) is reported as “promoted lymphocyte migration across the CP”, the cAMP levels (hCMEC/D3 cells [1]; various concentrations) is reported as “slightly increased cAMP levels” and the “lymphocyte (Jurkat) migration across the in vitro BBB” value (hCMEC/D3 cells [2]) is reported as “promoted lymphocyte migration across the in vitro BBB when used at a lower concentration”.

B1: PEG-ADA: Pegylated adenosine deaminase (protein, UniProt P56658 2-363, looked up)
Adenosine deaminase: AQTPAFNKPKVELHVHLDGAIKPETILYYGRKRGIALPADTPEELQNIIGMDKPLSLPEFLAKFDYYMPAIAGCREAVKRIAYEFVEMKAKDGVVYVEVRYSPHLLANSKVEPIPWNQAEGDLTPDEVVSLVNQGLQEGERDFGVKVRSILCCMRHQPSWSSEVVELCKKYREQTVVAIDLAGDETIEGSSLFPGHVKAYAEAVKSGVHRTVHAGEVGSANVVKEAVDTLKTERLGHGYHTLEDATLYNRLRQENMHFEVCPWSSYLTGAWKPDTEHPVVRFKNDQVNYSLNTDDPLIFKSTLDTDYQMTKNEMGFTEEEFKRLNINAAKSSFLPEDEKKELLDLLYKAYGMPSPASAEQCL
modifications: PEG
notes: Pegylated adenosine deaminase
B1 was tested, and the “EAE development (mean EAE score)” value (EAE-induced mice; wild type mice, 15 units/kg body weight i.p. every 4 days, vs PBS vehicle) was “inhibits development of EAE in wild type mice”.
